The values below come from the supplement of paper PMC10307832.

Common to all, as to assay: relative viability (nuclei count vs DMSO), 5 days (fraction); higher = more cells survive
Compound in the assay “Vandetanib + AZD7762”: COc1cc2/c(=N/c3ccc(Br)cc3F)nc[nH]c2cc1OCC1CCN(C)CC1 [Vandetanib] + NC(=O)Nc1cc(-c2cccc(F)c2)sc1C(=O)N[C@H]1CCCNC1 [AZD7762] (partner 0.2 µM)
In a few lines:
(§1)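 Relative viability is defined as nuclei in treated wells over nuclei in vehicle wells. Duplicate plates were run and medians reported. Lung cancer cell lines in 1536-well plates were dosed by pin tool one day after seeding, with one drug or with a fixed anchor-drug dose plus five library-drug doses (not always all listed) in √10 steps, and nuclei were counted after 5 days.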

Compound in the assay “CUDC-101 + Phenformin”: C#Cc1cccc(Nc2ncnc3cc(OC)c(OCCCCCCC(=O)NO)cc23)c1 [CUDC-101] + N=C(N)NC(=N)NCCc1ccccc1 [Phenformin] (partner 250 µM)
In a few lines: as §1

Compound in the assay “Vandetanib + Pictilisib”: COc1cc2/c(=N/c3ccc(Br)cc3F)nc[nH]c2cc1OCC1CCN(C)CC1 [Vandetanib] + CS(=O)(=O)N1CCN(Cc2cc3nc(-c4cccc5[nH]ncc45)nc(N4CCOCC4)c3s2)CC1 [Pictilisib] (partner 1 µM)
In a few lines:
as §1

Compound in assay [1]: C1=CC=C2C(=C1)N=C(S2)C(C#N)C3=NC(=NC=C3)NCCC4=CN=CC=C4 + O=C(CCCCCCC(=O)Nc1ccccc1)NO [Vorinostat] (partner 1 µM)
Summed up: as §1

With NCI-H2347, the relative viability in the assay with Vandetanib + AZD7762 (first compound 0.02 µM) is 0.764; with Vandetanib + AZD7762 (first compound 0.06325 µM), 0.657; with Vandetanib + AZD7762 (first compound 0.2 µM), 0.788; in the assay with Vandetanib + AZD7762 (first compound 0.6325 µM), 0.778; with Vandetanib + AZD7762 (first compound 2 µM), 0.689; with CUDC-101 + Phenformin (first compound 0.01 µM), 0.446. Besides, the relative viability with CUDC-101 + Phenformin (first compound 0.03162 µM) amounted to 0.299; with CUDC-101 + Phenformin (first compound 0.1 µM), 0.308; with CUDC-101 + Phenformin (first compound 0.3162 µM), 0.512; with CUDC-101 + Phenformin (first compound 1 µM), 0.371; with Vandetanib + Pictilisib (first compound 0.02 µM) it was 0.849; in the assay with Vandetanib + Pictilisib (first compound 0.06325 µM) it was 0.601. Besides, the relative viability came out at 0.571 with Vandetanib + Pictilisib (first compound 0.2 µM); 0.462 with Vandetanib + Pictilisib (first compound 0.6325 µM); 0.788 in the assay with Vandetanib + Pictilisib (first compound 2 µM); 0.578 in assay [1] (first compound 0.005 µM); 0.524 in assay [1] (first compound 0.01581 µM); 0.551 in assay [1] (first compound 0.05 µM). Further, the relative viability in assay [1] (first compound 0.1581 µM) stood at 0.72; in assay [1] (first compound 0.5 µM), 0.558.

On to NCI-H2405, for which the relative viability with Vandetanib + AZD7762 (first compound 0.02 µM) was 0.703; with Vandetanib + AZD7762 (first compound 0.06325 µM) it was 0.651; with Vandetanib + AZD7762 (first compound 0.2 µM), 0.674; in the assay with Vandetanib + AZD7762 (first compound 0.6325 µM), 0.698; with Vandetanib + AZD7762 (first compound 2 µM), 0.571; in the assay with CUDC-101 + Phenformin (first compound 0.01 µM) it was 0.392. The relative viability is 0.37 with CUDC-101 + Phenformin (first compound 0.03162 µM); 0.442 with CUDC-101 + Phenformin (first compound 0.1 µM); 0.397 with CUDC-101 + Phenformin (first compound 0.3162 µM); 0.352 in the assay with CUDC-101 + Phenformin (first compound 1 µM); 0.535 in the assay with Vandetanib + Pictilisib (first compound 0.02 µM); 0.264 with Vandetanib + Pictilisib (first compound 0.06325 µM). For the same cell line, the relative viability with Vandetanib + Pictilisib (first compound 0.2 µM) is 0.44; with Vandetanib + Pictilisib (first compound 0.6325 µM), 0.45; with Vandetanib + Pictilisib (first compound 2 µM), 0.222; in assay [1] (first compound 0.005 µM), 0.82; in assay [1] (first compound 0.01581 µM), 0.938; in assay [1] (first compound 0.05 µM), 0.953. Further, the relative viability is 1.15 in assay [1] (first compound 0.1581 µM) and 0.727 in assay [1] (first compound 0.5 µM).

Take NCI-H3122: the relative viability with Vandetanib + AZD7762 (first compound 0.02 µM) stood at 0.917; in the assay with Vandetanib + AZD7762 (first compound 0.06325 µM), 1; with Vandetanib + AZD7762 (first compound 0.2 µM), 1.01; with Vandetanib + AZD7762 (first compound 0.6325 µM) it was 0.926; in the assay with Vandetanib + AZD7762 (first compound 2 µM), 1.01; with CUDC-101 + Phenformin (first compound 0.01 µM), 0.382. Also, the relative viability with CUDC-101 + Phenformin (first compound 0.03162 µM) came to 0.361; with CUDC-101 + Phenformin (first compound 0.1 µM), 0.389; with CUDC-101 + Phenformin (first compound 0.3162 µM), 0.356; with CUDC-101 + Phenformin (first compound 1 µM), 0.338; with Vandetanib + Pictilisib (first compound 0.02 µM), 0.668; in the assay with Vandetanib + Pictilisib (first compound 0.06325 µM), 0.603. Besides, the relative viability with Vandetanib + Pictilisib (first compound 0.2 µM) stood at 0.58; with Vandetanib + Pictilisib (first compound 0.6325 µM), 0.61; in the assay with Vandetanib + Pictilisib (first compound 2 µM), 0.601; in assay [1] (first compound 0.005 µM) it was 0.923; in assay [1] (first compound 0.01581 µM), 1.34; in assay [1] (first compound 0.05 µM) it was 0.97. For the same cell line, the values for the relative viability in assay [1] (first compound 0.1581 µM) and in assay [1] (first compound 0.5 µM) were 1.05 and 1.1, respectively.

On to PC-3 [JPC-3], for which the relative viability in the assay with Vandetanib + AZD7762 (first compound 0.02 µM) is 0.766; with Vandetanib + AZD7762 (first compound 0.06325 µM), 0.729; in the assay with Vandetanib + AZD7762 (first compound 0.2 µM), 0.591; with Vandetanib + AZD7762 (first compound 0.6325 µM), 0.512; in the assay with Vandetanib + AZD7762 (first compound 2 µM) it was 0.419; in the assay with CUDC-101 + Phenformin (first compound 0.01 µM), 0.484. Moreover, the relative viability in the assay with CUDC-101 + Phenformin (first compound 0.03162 µM) stood at 0.486; with CUDC-101 + Phenformin (first compound 0.1 µM), 0.362; with CUDC-101 + Phenformin (first compound 0.3162 µM), 0.402; in the assay with CUDC-101 + Phenformin (first compound 1 µM), 0.351; with Vandetanib + Pictilisib (first compound 0.02 µM), 0.725; in the assay with Vandetanib + Pictilisib (first compound 0.06325 µM), 0.709. Besides, the relative viability with Vandetanib + Pictilisib (first compound 0.2 µM) is 0.622; with Vandetanib + Pictilisib (first compound 0.6325 µM) it was 0.423; with Vandetanib + Pictilisib (first compound 2 µM) it was 0.359; in assay [1] (first compound 0.005 µM), 0.864; in assay [1] (first compound 0.05 µM), 0.843; in assay [1] (first compound 0.1581 µM) it was 0.991. The relative viability in assay [1] (first compound 0.5 µM) stood at 0.737.

As for PC-14, the relative viability with Vandetanib + AZD7762 (first compound 0.02 µM) was 0.361; in the assay with Vandetanib + AZD7762 (first compound 0.06325 µM) it was 0.282; in the assay with Vandetanib + AZD7762 (first compound 0.2 µM) it was 0.25; with Vandetanib + AZD7762 (first compound 0.6325 µM), 0.164; in the assay with Vandetanib + AZD7762 (first compound 2 µM) it was 0.13; in the assay with CUDC-101 + Phenformin (first compound 0.01 µM), 0.854. The relative viability was 0.476 with CUDC-101 + Phenformin (first compound 0.03162 µM); 0.22 with CUDC-101 + Phenformin (first compound 0.1 µM); 0.193 with CUDC-101 + Phenformin (first compound 0.3162 µM); 0.0975 in the assay with CUDC-101 + Phenformin (first compound 1 µM); 0.676 with Vandetanib + Pictilisib (first compound 0.02 µM); 0.594 with Vandetanib + Pictilisib (first compound 0.06325 µM). In addition, the relative viability worked out at 0.35 with Vandetanib + Pictilisib (first compound 0.2 µM); 0.0812 in the assay with Vandetanib + Pictilisib (first compound 0.6325 µM); 0.0658 with Vandetanib + Pictilisib (first compound 2 µM); 0.642 in assay [1] (first compound 0.005 µM); 0.769 in assay [1] (first compound 0.01581 µM); 0.675 in assay [1] (first compound 0.05 µM). The relative viability is 0.753 in assay [1] (first compound 0.1581 µM) and 0.576 in assay [1] (first compound 0.5 µM).

For RERF-LC-KJ, the relative viability was found to be 0.985 with Vandetanib + AZD7762 (first compound 0.06325 µM); 1.06 with Vandetanib + AZD7762 (first compound 0.2 µM); 1.04 with Vandetanib + AZD7762 (first compound 0.6325 µM); 0.766 with Vandetanib + AZD7762 (first compound 2 µM); 0.419 with CUDC-101 + Phenformin (first compound 0.01 µM); 0.441 in the assay with CUDC-101 + Phenformin (first compound 0.03162 µM). In addition, the relative viability was 0.418 in the assay with CUDC-101 + Phenformin (first compound 0.1 µM); 0.387 with CUDC-101 + Phenformin (first compound 0.3162 µM); 0.387 with CUDC-101 + Phenformin (first compound 1 µM); 0.583 with Vandetanib + Pictilisib (first compound 0.02 µM); 0.543 with Vandetanib + Pictilisib (first compound 0.06325 µM); 0.577 with Vandetanib + Pictilisib (first compound 0.2 µM). Moreover, the relative viability was 0.448 with Vandetanib + Pictilisib (first compound 0.6325 µM); 0.394 in the assay with Vandetanib + Pictilisib (first compound 2 µM); 0.603 in assay [1] (first compound 0.005 µM); 0.623 in assay [1] (first compound 0.01581 µM); 0.609 in assay [1] (first compound 0.05 µM); 0.7 in assay [1] (first compound 0.1581 µM). In assay [1] (first compound 0.5 µM), the relative viability came out at 0.578.
